{"source": "ChEMBL document CHEMBL1139080", "about": "“3-Mercaptopropionic acids as efficacious inhibitors of activated thrombin activatable fibrinolysis inhibitor (TAFIa)” (Bioorg Med Chem Lett, 2007)", "key": {"[1]": {"target": "T1, Carboxypeptidase B2 (Homo sapiens, UniProt Q96IY4)", "T1 sequence (Q96IY4 whole entry)": "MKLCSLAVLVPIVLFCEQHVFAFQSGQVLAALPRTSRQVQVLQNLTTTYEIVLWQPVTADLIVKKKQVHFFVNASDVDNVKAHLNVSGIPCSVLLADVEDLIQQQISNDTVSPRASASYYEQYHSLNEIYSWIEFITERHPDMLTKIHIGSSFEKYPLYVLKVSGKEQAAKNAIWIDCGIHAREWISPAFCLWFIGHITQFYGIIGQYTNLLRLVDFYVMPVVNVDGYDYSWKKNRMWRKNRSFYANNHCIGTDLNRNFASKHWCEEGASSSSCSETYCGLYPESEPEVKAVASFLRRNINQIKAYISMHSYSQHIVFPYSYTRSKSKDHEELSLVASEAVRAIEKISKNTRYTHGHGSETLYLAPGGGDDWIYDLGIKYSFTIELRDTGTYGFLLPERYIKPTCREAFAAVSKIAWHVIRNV", "assay": "Inhibition of human activated thrombin activatable fibrinolysis inhibitor"}, "[2]": {"target": "T2, Carboxypeptidase B (Sus scrofa, UniProt P09955)", "T2 sequence (P09955 whole entry)": "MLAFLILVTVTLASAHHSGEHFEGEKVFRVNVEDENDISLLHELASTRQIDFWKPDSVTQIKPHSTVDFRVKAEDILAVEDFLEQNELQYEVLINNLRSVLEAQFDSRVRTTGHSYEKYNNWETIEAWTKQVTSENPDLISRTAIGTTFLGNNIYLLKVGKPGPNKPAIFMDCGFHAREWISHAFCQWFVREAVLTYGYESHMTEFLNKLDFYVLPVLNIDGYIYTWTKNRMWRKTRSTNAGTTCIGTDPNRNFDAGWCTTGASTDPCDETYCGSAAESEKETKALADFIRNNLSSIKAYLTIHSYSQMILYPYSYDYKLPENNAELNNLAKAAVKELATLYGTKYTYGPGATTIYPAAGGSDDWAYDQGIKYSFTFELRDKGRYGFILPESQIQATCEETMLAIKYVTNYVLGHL", "assay": "Inhibition of porcine pancreatic carboxypeptidase B"}, "[3]": {"target": "T3, Carboxypeptidase N catalytic chain (Homo sapiens, UniProt P15169)", "T3 sequence (P15169 whole entry)": "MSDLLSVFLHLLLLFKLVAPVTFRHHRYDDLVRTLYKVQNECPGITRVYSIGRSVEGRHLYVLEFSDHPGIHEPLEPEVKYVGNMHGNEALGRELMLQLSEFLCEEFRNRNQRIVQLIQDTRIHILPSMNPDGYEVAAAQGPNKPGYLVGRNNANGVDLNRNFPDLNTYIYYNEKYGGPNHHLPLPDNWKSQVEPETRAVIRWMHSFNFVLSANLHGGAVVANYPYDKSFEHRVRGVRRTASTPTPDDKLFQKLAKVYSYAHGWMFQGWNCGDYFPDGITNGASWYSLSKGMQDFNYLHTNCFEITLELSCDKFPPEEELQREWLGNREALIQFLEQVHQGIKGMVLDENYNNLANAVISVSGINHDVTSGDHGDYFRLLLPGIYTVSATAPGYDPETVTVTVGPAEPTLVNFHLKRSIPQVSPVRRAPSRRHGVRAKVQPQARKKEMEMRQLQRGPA", "assay": "Inhibition of human carboxypeptidase N"}, "[4]": {"system": "Plasma", "assay": "Inhibition of activated thrombin activatable fibrinolysis inhibitor in human plasma assessed as acceleration of clot lysis time", "format": "functional, cell-free"}}}
{"smiles": "NC(N)=NCCCC(CS)C(=O)O", "note": "(stereo not given)", "values": [{"measurement": "IC50", "setting": "[1]", "value": 8, "unit": "nM"}, {"measurement": "IC50", "setting": "[2]", "value": 10, "unit": "nM"}, {"measurement": "IC50", "setting": "[3]", "value": 2, "unit": "nM"}]}
{"smiles": "N=C(N)N1CCC(C(CS)C(=O)O)CC1", "note": "(stereo not given)", "values": [{"measurement": "IC50", "setting": "[1]", "value": 1070, "unit": "nM"}, {"measurement": "IC50", "setting": "[2]", "value": 45, "unit": "nM"}, {"measurement": "IC50", "setting": "[3]", "value": 3100, "unit": "nM"}]}
{"smiles": "CC(=N)N1CCC(C(CS)C(=O)O)CC1", "note": "(stereo not given)", "values": [{"measurement": "IC50", "setting": "[1]", "value": 5300, "unit": "nM"}, {"measurement": "IC50", "setting": "[2]", "value": 1040, "unit": "nM"}, {"measurement": "IC50", "setting": "[3]", "value": 29000, "unit": "nM"}]}
{"smiles": "NCC(=O)N1CCC(C(CS)C(=O)O)CC1", "note": "(stereo not given)", "values": [{"measurement": "IC50", "setting": "[1]", "value": 7350, "unit": "nM"}, {"measurement": "IC50", "setting": "[2]", "value": "> 30000", "unit": "nM"}, {"measurement": "IC50", "setting": "[3]", "value": 4950, "unit": "nM"}]}
{"smiles": "N=C(N)Nc1ccc(Cl)c(C(CS)C(=O)O)c1", "note": "(stereo not given)", "values": [{"measurement": "IC50", "setting": "[1]", "value": 11, "unit": "nM"}, {"measurement": "IC50", "setting": "[2]", "value": 4650, "unit": "nM"}, {"measurement": "IC50", "setting": "[3]", "value": 4650, "unit": "nM"}]}
{"smiles": "Nc1cccc(C(CS)C(=O)O)c1", "note": "(stereo not given)", "values": [{"measurement": "IC50", "setting": "[1]", "value": 785, "unit": "nM"}, {"measurement": "IC50", "setting": "[2]", "value": "> 30000", "unit": "nM"}, {"measurement": "IC50", "setting": "[3]", "value": 357, "unit": "nM"}]}
{"smiles": "O=C(O)C(CS)C1CCNCC1", "note": "(stereo not given)", "values": [{"measurement": "IC50", "setting": "[1]", "value": 37, "unit": "nM"}, {"measurement": "IC50", "setting": "[2]", "value": 195, "unit": "nM"}, {"measurement": "IC50", "setting": "[3]", "value": 60, "unit": "nM"}]}
{"smiles": "O=C(O)C(CS)CC1CCNCC1", "note": "(stereo not given)", "values": [{"measurement": "IC50", "setting": "[1]", "value": 139, "unit": "nM"}, {"measurement": "IC50", "setting": "[2]", "value": 29, "unit": "nM"}, {"measurement": "IC50", "setting": "[3]", "value": 61, "unit": "nM"}]}
{"smiles": "N=C(N)c1ccc(C(CS)C(=O)O)cc1", "note": "(stereo not given)", "values": [{"measurement": "IC50", "setting": "[1]", "value": 905, "unit": "nM"}, {"measurement": "IC50", "setting": "[2]", "value": 845, "unit": "nM"}, {"measurement": "IC50", "setting": "[3]", "value": 1000, "unit": "nM"}]}
{"smiles": "N=C(N)Nc1cccc(C(CS)C(=O)O)c1", "note": "(racemic) [listing 1 of 2 here]", "values": [{"measurement": "IC50", "setting": "[1]", "value": 4, "unit": "nM"}, {"measurement": "IC50", "setting": "[2]", "value": 137, "unit": "nM"}, {"measurement": "IC50", "setting": "[3]", "value": 3, "unit": "nM"}]}
{"smiles": "N=C(N)Nc1cccc(C(CS)C(=O)O)c1", "note": "(racemic) [listing 2 of 2 here]", "values": [{"measurement": "Activity", "setting": "[4]", "value": "Dose-dependent effect"}]}
{"smiles": "N=C(N)Nc1cccc(C(CS)C(=O)O)c1", "note": "(single isomer, unassigned; (+))", "values": [{"measurement": "IC50", "setting": "[1]", "value": 5, "unit": "nM"}, {"measurement": "IC50", "setting": "[2]", "value": 36, "unit": "nM"}, {"measurement": "IC50", "setting": "[3]", "value": 8, "unit": "nM"}]}
{"smiles": "N=C(N)N1CCCC(C(CS)C(=O)O)C1", "note": "(stereo in doubt; 1b)", "values": [{"measurement": "IC50", "setting": "[1]", "value": 45, "unit": "nM"}, {"measurement": "IC50", "setting": "[2]", "value": 38, "unit": "nM"}, {"measurement": "IC50", "setting": "[3]", "value": 38, "unit": "nM"}]}
{"smiles": "O=C(O)C(CS)C1CCCNC1", "note": "(stereo in doubt; 1c)", "values": [{"measurement": "IC50", "setting": "[1]", "value": 68, "unit": "nM"}, {"measurement": "IC50", "setting": "[2]", "value": "> 30000", "unit": "nM"}, {"measurement": "IC50", "setting": "[3]", "value": "> 30000", "unit": "nM"}]}
{"smiles": "N=C(N)N1CCCC(C(CS)C(=O)O)C1", "note": "(stereo in doubt; 1d)", "values": [{"measurement": "IC50", "setting": "[1]", "value": 165, "unit": "nM"}, {"measurement": "IC50", "setting": "[2]", "value": 3, "unit": "nM"}, {"measurement": "IC50", "setting": "[3]", "value": 58, "unit": "nM"}]}
{"smiles": "O=C(O)C(CS)C1CCCNC1", "note": "(stereo in doubt; 1e)", "values": [{"measurement": "IC50", "setting": "[1]", "value": 445, "unit": "nM"}, {"measurement": "IC50", "setting": "[2]", "value": 19000, "unit": "nM"}, {"measurement": "IC50", "setting": "[3]", "value": 1750, "unit": "nM"}]}
{"smiles": "O=C(O)C(CS)CC1CCCNC1", "note": "(stereo in doubt; 3a)", "values": [{"measurement": "IC50", "setting": "[1]", "value": 92, "unit": "nM"}, {"measurement": "IC50", "setting": "[2]", "value": 4150, "unit": "nM"}, {"measurement": "IC50", "setting": "[3]", "value": 420, "unit": "nM"}]}
{"smiles": "O=C(O)C(CS)CC1CCCNC1", "note": "(stereo in doubt; 3b)", "values": [{"measurement": "IC50", "setting": "[1]", "value": 129, "unit": "nM"}, {"measurement": "IC50", "setting": "[2]", "value": 1950, "unit": "nM"}, {"measurement": "IC50", "setting": "[3]", "value": "> 30000", "unit": "nM"}]}
{"smiles": "N=C(N)Nc1cccc(C(CS)C(=O)O)c1", "note": "(stereo in doubt; (-)2a)", "values": [{"measurement": "IC50", "setting": "[1]", "value": 3, "unit": "nM"}, {"measurement": "IC50", "setting": "[2]", "value": 1720, "unit": "nM"}, {"measurement": "IC50", "setting": "[3]", "value": 1720, "unit": "nM"}]}
